In patent US11167006B2 (Shanghai Tianci Life Science Development Co., Ltd., priority 2016, dated 2021):
Square brackets hold non-standard residues; d marks the D form. Peptide text beside a SMILES is read from it. NMeF = CN[C@@H](Cc1ccccc1)C(=O)O

Columns and labels:
[1] = test system: acute pain caused by photothermal therapy in male mice of Kunming strain; test: Mouse photothermal tail flick analgesia experiment; assay type: in vivo
Method: After the drug was injected into the lateral ventricle, intrathecal, subcutaneous, and intraperitoneal, the modulating activity on pain was measured by the photothermal tail flick test in mouse.
In the lateral ventricle administration, the lateral ventricle tube-buried surgery of the mouse should be performed in advance to ensure the accuracy of the drug injection site. A brain stereotaxic instrument was used in the lateral ventricle tube-buried surgery of the mouse. Male mice of Kunming strain, weighing 21±2 g; brain stereotaxic instrument is Jiangwan I. After the mice were anesthetized with sodium pentobarbital (i.p., 80 mg/kg mouse body weight), the hair in the head surgery area of the mouse was cut off and the mouse was placed on the brain stereotactic instrument and fixed. The surgery area was disinfected with iodophor, the scalp was opened along the sagittal suture to reveal the skull and the position of the anterior fontanelle can be found. 3 mm backward and 1 mm left/right from the anterior fontanelle, the upper position of the lateral ventricle can be found. A self-made stainless steel tube (a section of 24-gauge, which is connected to a small section of PE-10 tube) is inserted 3 mm downward according to the above position, which is the lateral ventricle. A section of stainless steel string (28-gauge) is inserted into the above-mentioned steel tube to prevent cerebrospinal fluid spillage and foreign matter infection and block the steel pipe. The steel tube is fixed with medical dental powder and glue, and after solidification, the wound is sutured. After the surgery, the mice were recovered tier 4 days, and the follow-up experiment was started on the 5th day. Surgical instruments, stainless steel tubes, etc. involved in the experiment need to be disinfected before the surgery. The mouse lateral ventricle was injected with 4 μl of the drug each time, and then the steel tube was rinsed with 1 μl of physiological saline.
Spinal cord level administration is performed by intrathecal injection in conscious mice, and the specific procedure is described in the method reported by Hylden and Wilcox (Eur. J. Pharmacol. 1980, 67: 313). A 25 μL microinjector was inserted directly into the subarachnoid space between L5 and L6.
The intraperitoneal administration was directly injected using a 1 mL syringe at an injection volume of 10 μl/g body weight. At the time of injection, the mouse was held by left hand with their abdomen facing up and the head was at low position while the tail was at high position. The side of the midline of the abdomen was taken, the needle hole of the syringe was upward, the needle tip penetrates into the skin in a direction less than 20 degrees, the needle tip was slightly pushed in the direction of the mouse head and sticking abdominal wall, and then punctures into the abdominal cavity in the direction of 45 degrees, and was withdrawn to confirm that it has not been pierced into the blood vessel or the intestine, afterwards the drug solution is slowly pushed out.
Subcutaneous injection was also administered directly using a 1 mL syringe in an injection volume of 10 μl/g body weight. At the time of injection, the neck and tail of the mouse were fixed in the left hand, and the head and body were inclined downward at 45 degrees. The needle hole of the syringe is upward, the needle tip is slowly pierced into the skin on the right side of the back center line at an angle of less than 20 degrees, and the needle tip is lightly picked up to confirm that there is no piercing, afterwards the drug solution is slowly pushed out.
Male mice of Kunming strain were used to detect the effects of drugs on pain perception using a photothermal tail flick instrument. The ambient temperature is controlled at 22±1° C., and the experimental animals are free to eat and drink. The basic tail flick incubation period (3-5 seconds) was determined prior to administration, and mice that were too sensitive or dull were discarded. […]

[2] = test system: visceral pain induced by intraperitoneal injection of acetic acid solution in mice; test: Acetic acid writhing visceral pain model; assay type: in vivo, mouse
Method: The mice were placed in a transparent polymethyl methacry late box (20×20×30 cm) and adapted to the environment for 10-15 min; after the adaptation, compound 9 was administered intrathecally, intraperitoneally or subcutaneously to the mice. After 5 min, the mice were intraperitoneally injected with 10 ml/kg of 0.6% acetic acid solution, 5 min. after the intraperitoneal injection of acetic acid solution, the writhing response of the mice was recorded for 10 min. The mice developed characteristic reactions such as twisting of the trunk, concave in the abdomen, elevation of the buttocks and extension of the hind limbs, which were recorded as a writhing reaction.
The experimental data was expressed by MPE (maximum possible effect), MPE (%)=100×[(the number of writhing bodies in the physiological saline group− the number of writhing bodies in the drug group)/the number of writhing bodies in the physiological saline group]. The relevant MPE data were expressed as mean±standard error (Means±S.E.M.), the data for differences between groups treated with different drug concentrations were analyzed by one-way ANOVA (Bonferroni test in one-way ANOVA) for statistics and analysis, ***P<0.001 represents that there was a significant difference between the MPE value of the drug-treated group and that of the saline group.

[3] = test system: CCI-induced neuralgia in mouse; test: Analgesic tolerance and cross-tolerance in CCI-induced neuralgia; assay type: in vivo
Method: CCI-induced neuralgia in mouse was detected using a PL-200 thermal tingling instrument and an electronic Von Frey tenderness instrument. The thermal pain threshold of one group of normal mice and the mechanical pain threshold of another group of normal mice were first determined. The mice were then anesthetized with sodium pentobarbital 80 mg/kg mouse body weight) and the mice were fixed in the prone position. The right sciatic nerve was exposed and 3 mild ligation rings were made around the sciatic nerve using a 4-0 chromic catgut, 1 mm intervals. The ligation intensity is preferably a slight tremor in the right hind leg. On the 10th day after surgery, the thermal pain sensitivity value and mechanical pain sensitivity value of the right hind paw of the two groups of mice were determined. Compound 9 or morphine was then administered subcutaneously for seven consecutive days, and compound 9 was given to mice in the morphine group on day 8. The thermal tingling and mechanical pain thresholds at different time points after administration were recorded.
The experimental data were expressed as mean±standard error (Means±S.E.M.). Data for differences between groups treated with the same drug were analyzed by one-way ANOVA (Tukey HSD test of one-way ANOVA) for statistics and analysis, *P<0.05. **P<0.01, ***P<0.001 indicates a significant difference between the pain threshold of the drug-treated group and the pain threshold after the First day of administration.

body temperature of mice = test: Body temperature of mice (rectal temperature); assay type: in vivo; conditions: mouse, intrathecal; doses 100, 300, 500 pmol
Method: Mice were fixed in the manner described in Rosow et al. (1980). The ambient temperature was controlled at 21±0.5° C. and the experiment was carried out between 10 am and 2 pm. A temperature sensor attached to the biofunctional test BL-420F system was inserted into the rectum of the mouse in a depth of 2.5 cm to record the rectal temperature. The body temperatures before the intrathecal administration and at 10, 20, 30, 40, 50 and 60 minutes after administration were recorded.
The experiment results of regulation on the mouse body temperature were expressed as the difference between the basal body temperature and the body temperature after administration. The relevant data were expressed as mean+standard error (Means±S.E.M.). Differences between groups treated with different drug concentrations were analyzed by one-way ANOVA (Bonfenoni test in one-way ANOVA) for data statistics and analysis.

[4] = subcutaneous, seven consecutive days

With `C[C@@H](NC(=O)[C@@H](N)Cc1ccc(O)cc1)C(=O)NCC(=O)N(C)[C@@H](Cc1ccccc1)C(=O)NCC(=O)N1CCC[C@H]1C(=O)N[C@@H](CCC(N)=O)C(=O)N[C@@H](CCCNC(=N)N)C(=O)N[C@@H](Cc1ccccc1)C(N)=O` [Compound 9, Tyr-D-Ala-Gly-NMe-Phe-Gly-Pro-Gln-Arg-Phe-NH2] (H-Y[dA]G[NMeF]GPQRF-NH2) the “analgesia ED50 value” ([1]; abdominal (intraperitoneal)) was 26.58 mg/kg, the “analgesic potency relative to BN-9” value ([1]; intrathecal) was 218 times and the “analgesic ED50 value” ([1]; intrathecal administration) was 1.33 pmol. The “maximum analgesic MPE value” ([1]; intrathecal, 5 pmol) was 94.7%, the “analgesic ED50 value” ([1]; lateral ventricle administration) was 16.3 pmol and the “ED50 value (nmol) (95% confidence interval), analgesic activity” value ([1]; lateral ventricle injection) was 0.0163 (0.0145 to 0.0182) nmol. The “analgesic potency relative to BN-9” value ([1]; lateral ventricle, from ED50 values) was 23.9 times, the “analgesia ED50 value” ([1]; subcutaneous) was 0.2279 mg/kg and the “ED50 value (95% confidence interval)” value ([2]; intraperitoneal (i.p.)) was 0.721 (0.594 to 0.875) mg/kg. For the same molecule, the “ED50 value (95% confidence interval)” value ([2]; intrathecal (i.t.)) was 0.657 (0.595 to 0.727) pmol, the “ED50 value (95% confidence interval)” value ([2]; subcutaneous (s.c.)) was 0.789 (0.702 to 0.887) mg/kg and the “cross-tolerance between compound 9 and morphine” value ([3]; morphine-tolerant mice given compound 9 s.c. on day 8) was “no cross-tolerance”. For the same molecule, the “analgesic tolerance on continuous injection, mechanical pain sensitivity” value [3, 4] was “not significantly different from that obtained in the first day”, the “analgesic tolerance on continuous injection, thermal sensitivity pain” value [3, 4] was “not significantly different from that obtained in the first day” and the “dose producing a significant effect of lowering body temperature” value (body temperature of mice) was 500 pmol.
